Reference: US4399132A, “7-Beta-[alpha-syn-methoxyimino-alpha-(2-aminothiazol-4-yl)-aceta mido]-3-[(1,2,3-thiadiazol-5-ylthio)methyl]-3-cephem-4-carboxylic acid and C1 -C6 alkyl derivatives thereof” (American Cyanamid Company, priority 1981, dated 1983)
Converted amounts (≈) assume the structure as drawn. Like-named read-outs stand apart in the source and are kept apart here.

What was measured:
Klebsiella pneumoniae = test: Mueller-Hinton agar dilution method (MIC); type: cell-based; conditions: Table I
Klebsiella oxytoca = test: Mueller-Hinton agar dilution method (MIC); type: cell-based; conditions: strain K-81-6, Table I, read-out: Minimal Inhibitory Concentration
Enterobacter aerogenes = test: Mueller-Hinton agar dilution method (MIC); type: cell-based; conditions: Klebsiella aerogenes; strain STFD-79-14; Table I; read-out: Minimal Inhibitory Concentration
Enterobacter cloacae = test: Mueller-Hinton agar dilution method (MIC); type: cell-based; conditions: read-out: Minimal Inhibitory Concentration
Serratia marcescens = test: Mueller-Hinton agar dilution method (MIC); type: cell-based; conditions: read-out: Minimal Inhibitory Concentration
Proteus morganii = test: Mueller-Hinton agar dilution method (MIC); type: cell-based; conditions: Morganella morganii, Table I, read-out: Minimal Inhibitory Concentration
Proteus rettgeri = test: Mueller-Hinton agar dilution method (MIC); type: cell-based; conditions: Providencia rettgeri; strain N-76-1; Table I; read-out: Minimal Inhibitory Concentration
Providencia stuartti = test: Mueller-Hinton agar dilution method (MIC); type: cell-based; conditions: strain K-81-29, Table I, read-out: Minimal Inhibitory Concentration
Escherichia coli [1] = test: Mueller-Hinton agar dilution method (MIC); type: cell-based; conditions: read-out: Minimal Inhibitory Concentration
Salmonella sp. = test: Mueller-Hinton agar dilution method (MIC); type: cell-based; conditions: strain SSC-79-57, Table I, read-out: Minimal Inhibitory Concentration
From the text: The results appear in Tables I, II, and III.

Salmonella (arizona) = test: Mueller-Hinton agar dilution method (MIC); type: cell-based; conditions: strain QHC-77-3, Table I, read-out: Minimal Inhibitory Concentration
Citrobacter sp. = test: Mueller-Hinton agar dilution method (MIC); type: cell-based; conditions: strain K-81-27, Table I, read-out: Minimal Inhibitory Concentration
Acinetobacter sp. = test: Mueller-Hinton agar dilution method (MIC); type: cell-based; conditions: read-out: Minimal Inhibitory Concentration
Pseudomonas aeruginosa = test: Mueller-Hinton agar dilution method (MIC); type: cell-based; conditions: read-out: Minimal Inhibitory Concentration
Enterococcus sp. = test: Mueller-Hinton agar dilution method (MIC); type: cell-based; conditions: Table I
Staphylococcus aureus [2] = test: Mueller-Hinton agar dilution method (MIC); type: cell-based; conditions: read-out: Minimal Inhibitory Concentration
Escherichia coli [3] = test: control of systemic lethal infections in mice; type: in vivo, mice (Charles River Laboratories CD-1 strain female); conditions: sc, 168 h, strain 311, subcutaneous 30 min after i.p. infection, survival at 7 days, three tests pooled, 95% confidence limits (0.28-0.44), read-out: Median Effective Dose (ED50)
Experimental: (§1) The test employed used Charles River Laboratories CD-1 strain female mice each weighing 20+2 grams. The mice were infected by intraperitoneal injection of sufficient bacteria (see Table 2), contained in either 0.5 ml. of 5% mucin (S. aureus strains) or broth (S. pyogenes or E. coli), to kill 95-100% of untreated mice within 48 hours.
(§2) The mice were treated by subcutaneous injection 30 minutes after infection with the test drug at varying doses contained in 0.5 ml. of 0.2% aqueous agar. Survival ratios seven days after infection were recorded.

Staphylococcus aureus [4] = test: control of systemic lethal infections in mice; type: in vivo, mice (Charles River Laboratories CD-1 strain female); conditions: sc, 168 h, survival at 7 days, three tests pooled, read-out: Median Effective Dose (ED50)
Experimental: as §1, §2

Staphylococcus pyogenes = test: control of systemic lethal infections in mice; type: in vivo, mice (Charles River Laboratories CD-1 strain female); conditions: Staphylococcus aureus, sc, 168 h; strain C 203; subcutaneous 30 min after i.p. infection; survival at 7 days; three tests pooled; 95% confidence limits (0.08-0.13); read-out: Median Effective Dose (ED50)
Experimental: as §1, §2

## CO/N=C(\C(=O)N[C@@H]1C(=O)N2C(C(=O)O)=C(CSc3cnns3)CS[C@H]12)c1csc(N)n1 [Compound Ia, 7 beta-[alpha-syn-methoxyimino-alpha-(2-aminothiazol-4-yl)acetamido]-3-[(1,2,3-thiadiazol-5-ylthio)methyl]-3-cephem-4-carboxylic acid]
Klebsiella pneumoniae; Klebsiella pneumoniae, strain STFD-79-16, read-out: Minimal Inhibitory Concentration
  MIC: 0.015 µg/mL (≈ 0.0292 µM)
Klebsiella pneumoniae; strain SSC-78-1
  Minimal Inhibitory Concentration: .015 µg/mL
Klebsiella oxytoca
  MIC: 0.03 µg/mL (≈ 0.0584 µM)
Enterobacter aerogenes
  MIC: 0.03 µg/mL (≈ 0.0584 µM)
Enterobacter cloacae; strain K-79-16, Table I
  MIC: 0.25 µg/mL (≈ 0.487 µM)
Enterobacter cloacae; strain K-81-46, Table I
  MIC: 0.12 µg/mL (≈ 0.234 µM)
Serratia marcescens; strain K-81-39, Table I
  MIC: 0.12 µg/mL (≈ 0.234 µM)
Serratia marcescens; strain QHC-77-2, Table I
  MIC: 1 µg/mL (≈ 1.95 µM)
Serratia marcescens; strain TUL-78-15, Table I
  MIC: 1 µg/mL (≈ 1.95 µM)
Proteus morganii; strain K-77-3
  MIC: 4 µg/mL (≈ 7.79 µM)
Proteus morganii; strain K-79-25
  MIC: 0.015 µg/mL (≈ 0.0292 µM)
Proteus rettgeri
  MIC: 0.015 µg/mL (≈ 0.0292 µM)
Providencia stuartti
  MIC: 0.06 µg/mL (≈ 0.117 µM)
Escherichia coli [1]; strain #311, Table I
  MIC: 0.03 µg/mL (≈ 0.0584 µM)
Escherichia coli [1]; strain K-81-14, Table I
  MIC: 0.06 µg/mL (≈ 0.117 µM)
Escherichia coli [1]; strain STFD-79-20, Table I
  MIC: 0.015 µg/mL (≈ 0.0292 µM)
Salmonella sp.
  MIC: 0.25 µg/mL (≈ 0.487 µM)
Salmonella (arizona)
  MIC: 0.03 µg/mL (≈ 0.0584 µM)
Citrobacter sp.
  MIC: 0.03 µg/mL (≈ 0.0584 µM)
Acinetobacter sp.; strain K-77-1, Table I
  MIC: 4 µg/mL (≈ 7.79 µM)
Acinetobacter sp.; strain K-77-6, Table I
  MIC: 16 µg/mL (≈ 31.2 µM)
Acinetobacter sp.; strain STFD-79-17, Table I
  MIC: 16 µg/mL (≈ 31.2 µM)
Pseudomonas aeruginosa; strain 12-4-4, Table I
  MIC: 32 µg/mL (≈ 62.3 µM)
Pseudomonas aeruginosa; strain SSC-78-13, Table I
  MIC: 64 µg/mL (≈ 125 µM)
Pseudomonas aeruginosa; strain TUL-78-2, Table I
  MIC: 128 µg/mL (≈ 249 µM)
Enterococcus sp.; Enterococcus, strain OSU-75-1, read-out: Minimal Inhibitory Concentration
  MIC: 32 µg/mL (≈ 62.3 µM)
Enterococcus sp.; strain SM-77-15
  Minimal Inhibitory Concentration: 32 µg/mL
Staphylococcus aureus [2]; beta-lactamase negative, strain SSC 79-3, Table II
  MIC: 0.12 µg/mL (≈ 0.234 µM)
Staphylococcus aureus [2]; beta-lactamase negative, strain SSC 79-5, Table II
  MIC: 0.5 µg/mL (≈ 0.974 µM)
Staphylococcus aureus [2]; beta-lactamase negative, strain SSC 79-7, Table II
  MIC: 0.12 µg/mL (≈ 0.234 µM)
Staphylococcus aureus [2]; beta-lactamase negative, strain SSC 79-9, Table II
  MIC: 0.12 µg/mL (≈ 0.234 µM)
Staphylococcus aureus [2]; beta-lactamase negative, strain SSC 79-10, Table II
  MIC: 0.12 µg/mL (≈ 0.234 µM)
Staphylococcus aureus [2]; beta-lactamase negative, strain SSC 79-11, Table II
  MIC: 0.12 µg/mL (≈ 0.234 µM)
Staphylococcus aureus [2]; beta-lactamase negative, strain SSC 79-14, Table II
  MIC: 0.5 µg/mL (≈ 0.974 µM)
Staphylococcus aureus [2]; beta-lactamase negative, strain SSC 79-15, Table II
  MIC: 0.5 µg/mL (≈ 0.974 µM)
Staphylococcus aureus [2]; beta-lactamase negative, strain SSC 79-17, Table II
  MIC: 0.25 µg/mL (≈ 0.487 µM)
Staphylococcus aureus [2]; beta-lactamase positive, strain SSC 79-24, Table II
  MIC: 4 µg/mL (≈ 7.79 µM)
Staphylococcus aureus [2]; beta-lactamase positive, strain SSC 79-27, Table II
  MIC: 0.25 µg/mL (≈ 0.487 µM)
Staphylococcus aureus [2]; beta-lactamase positive, strain SSC 79-28, Table II
  MIC: 0.25 µg/mL (≈ 0.487 µM)
Staphylococcus aureus [2]; beta-lactamase positive, strain SSC 79-36, Table II
  MIC: 0.25 µg/mL (≈ 0.487 µM)
Staphylococcus aureus [2]; beta-lactamase positive, strain SSC 79-38, Table II
  MIC: 0.25 µg/mL (≈ 0.487 µM)
Staphylococcus aureus [2]; beta-lactamase positive, strain SSC 79-39, Table II
  MIC: 0.25 µg/mL (≈ 0.487 µM)
Staphylococcus aureus [2]; beta-lactamase positive, strain SSC 79-41, Table II
  MIC: 0.5 µg/mL (≈ 0.974 µM)
Staphylococcus aureus [2]; beta-lactamase positive, strain SSC 79-44, Table II
  MIC: 0.12 µg/mL (≈ 0.234 µM)
Staphylococcus aureus [2]; beta-lactamase positive, strain SSC 79-47, Table II
  MIC: 0.25 µg/mL (≈ 0.487 µM)
Staphylococcus aureus [2]; strain FU-79-19-2, Table I
  MIC: 0.5 µg/mL (≈ 0.974 µM)
Staphylococcus aureus [2]; strain SSC-79-18, Table I
  MIC: 0.25 µg/mL (≈ 0.487 µM)
Staphylococcus aureus [2]; strain SSC-80-15, Table I
  MIC: 0.5 µg/mL (≈ 0.974 µM)
Staphylococcus aureus [2]; strain Smith, Table I
  MIC: 0.25 µg/mL (≈ 0.487 µM)
Escherichia coli [3]
  ED50: 0.35 mg/kg
Staphylococcus aureus [4]; strain Fu-79-2, subcutaneous 30 min after i.p. infection, 95% confidence limits (4.4-8.4)
  ED50: 6.1 mg/kg
Staphylococcus aureus [4]; strain Smith, subcutaneous 30 min after i.p. infection, 95% confidence limits (2.4-3.6)
  ED50: 2.9 mg/kg
Staphylococcus pyogenes
  ED50: 0.1 mg/kg
